Measured values as given in article PMC8131842, “Therapeutic Potential of Vasoactive Intestinal Peptide and its Derivative Stearyl-Norleucine-VIP in Inflammation-Induced Osteolysis” (Frontiers in Pharmacology, 2021).

Tests used:
[1] = tested on: histidine auxotrophs of Salmonella typhimurium; assay: Study 005 mutagenic potential (Ames test); type: cell-based
Experimental: Although, the studies were not carried out under Good Laboratory Practices (GLP) stipulations, SNV was synthesized under GLP conditions, and all the work was carried out at Tel Aviv University under meticulous conditions using professional staff and established methods (in a designated air-conditioned, clean room and specific luminary flow hood), which all strengthen the trustworthiness of the study results. Ames tests were carried out by Life Science Research Israel Ltd. Ness Ziona, Israel.

[2] = tested on: Primary murine preosteoclasts; assay: Osteoclastogenesis assay with conditioned medium from TiP-exposed macrophages (TRAP staining); type: cell-based, mouse; details: 10^-6 M, conditioned medium of TiP-exposed macrophages
Experimental: Osteoclastogenesis assay. Preosteoclasts, prepared like the BMDMs, were plated in 96-well plates (7,000 cells per well, for TRAP staining, see below) or in 6-well plates (200,000 cells per well, for RNA) in standard medium supplemented with 20 ng/ml M-CSF and 50 ng/ml RANKL (R&D Systems, Minneapolis, MN, United States). After 48 h, the medium was replaced by the conditioned medium of BMDM, supplemented with RANKL and M-CSF. Where indicated, 10^−6 M SNV or VIP were added. […], cells were stained using a TRAP kit (Sigma-Aldrich, St. Louis, MO, United States), and multinucleated (>3 nuclei) TRAP-positive cells were defined as osteoclasts. Images were acquired at an original magnification of ×4 (Evos FLC, Life Technologies, MS, United States). The number of osteoclasts and the total osteoclast area were measured using ImageJ software (National Institutes of Health, Bethesda, MD, United States).
FIGURE 4 VIP and SNV alleviate the osteoclastogenic effect of TiP-induced inflammation. (A) Primary BMDM were exposed to TiP and RNA was collected after 24 h. mRNA expression are presented as Mean±SD fold change versus Control. * p<0.05 vs. Control. (B-D) Primary murine preosteoclasts were cultured in 20 ng/ml M-CSF and 50 ng/ml RANKL for 48 h. Conditioned medium from macrophages (Control) and macrophages exposed to Ti particles (Ti, as in A) was then added together with 10^-6M of VIP or SNV (or saline) for 48 h before TRAP staining. Data are Mean±SD for osteoclast % surface area (B) and number per well (C). (D) Representative images all acquired at a 4x original magnification. The scale bar for all images is in the upper left panel. n=8, #p<0.05 vs. Control; *p<0.05 vs. Ti, ANOVA. (E) Primary murine macrophages/preosteoclasts were cultured in 20 ng/ml M-CSF and Ti particles, 10^-6M of VIP or SNV, or saline only. MTT viability assay was performed after 1, 3 and 5 days and presented as optical density values. N=5, no statistical differences were found between the treatment groups. Data are Mean±SD in arbitrary OD units.

albino female rabbits = assay: Study 002 acute dermal toxicity in rabbits; type: in vivo, rabbit; details: single dermal application, 7 mg/site (1000X)
Experimental: (§1) Toxicology. We performed toxicology studies for SNV that consisted of acute subcutaneous, intravenous and oral toxicity in rats, acute dermal toxicity in rabbits, skin sensitization using adjuvant and patch test in guinea pigs, and single and repeated (for 13 weeks) dose toxicity studies in rats. The latter was a 90-days repeated dose toxicity study, consisting of SNV once a day at three different doses to the penis and vagina of male and female rats, respectively. The compound was tested for the treatment of erectile dysfunction. The active dose (7 µg SNV) was chosen as the lowest dose for the study. The highest dosage group in the repeated dose toxicity study received 3,500 µg ([Gozes et al., 1994]). For study 001 (parts 1 through 3), the 1× dose consisted of 0.5 mg SNV dissolved in 7.1 ml vehicle (3.55 ml 10% Sefsol [glycerin monocaprylate] + 3.55 ml isopropanol) and 100µl/animal were administered; the 1000X dose consisted of 91 mg SNV dissolved in 1.3 ml vehicle (0.65 ml 10% Sefsol +0.65 ml isopropanol) and 100µl/animal were administered. For studies 002 through 004, the indicated doses of SNV (Table 1) were dissolved in 0.25 ml 10% Sefsol +0.25 ml 40% isopropanol (vehicle). The methodology for each of the toxicology studies is detailed in Table 1.

[3] = intravenously administered, 30 min after injection; ref Gozes et al., 1994; cited from earlier work
Description: VIP and its derivative SNV have been previously studied for immunomodulation properties ([Abad et al., 2006]; [Goursaud et al., 2015]). Here we show the effect of each peptide on the cytokine profile of macrophages in response to LPS and in the osteolytic response to Ti particles using in vitro and in vivo mouse models. […] Furthermore, loading a single dose of SNV into a degradable memb ...

rats = assay: Study 004–1 repeated dose toxicity in rats: a 13-weeks study; type: in vivo, rat
Experimental: as §1
The study named 004-1, was the most protracted and detailed toxicology study. We carried it out in rats as a repeated dose toxicity study on target external organs, the penis and the vagina. The structure of the study included a detailed pathological evaluation of all body organs.

[4] = 20 ng/ml M-CSF + 50 ng/ml RANKL, TRAP staining, n=8, vs Ti
[5] = daily topical for 13 weeks, all doses

## Stearyl–HSDAVFTDNYTRLRKQ-Nle-AVKKYLNSILN-NH2 [SNV, Stearyl-norleucine-VIP, lipophilic VIP derivative with N-terminal stearic acid and norleucine in place of methionine at position 17]
[1]; 0.3 to 312.5 µg/plate
  Revertant colony numbers over control: No significant increases in revertant colony numbers over control with test material at doses ranging from 0.3 to 312.5 µg/plate
[1]; 0.3–312.5 µg/standard bacterial plate
  Mutagenic activity, conclusion: Under the conditions of this study, the test material, SNV was devoid of mutagenic activity
[2]
  Inhibitory effect on osteoclasts compared with VIP: stronger inhibitory effect on osteoclasts than VIP
[2]; [4]
  Osteoclast area: attenuated
  Osteoclast number: attenuated
Albino female rabbits
  Dermal irritation, conclusion: Under the conditions of this study, single dermal application of the vehicle did not cause irritation. The 1000X dose transient effect was barely perceptible
Albino female rabbits; N = 4
  Mortality: None
Albino female rabbits; N = 4, disappeared within 72 h following application
  Rabbits with slight barely perceptible erythema: 50%
[3]
  Remaining intact SNV: 10%
rats; daily topical for 13 weeks, 7 µg, 0.7 mg and 3.5 mg/rat
  Clinical signs (penile edema, erythema and staining): relation to dose: not dose-related
rats; daily topical for 13 weeks, 7 µg/rat (low dose)
  Mortality: None. Only one death took place in a male from the low dose group due to massive abdominal hemorrhage caused by a nephroblastoma
rats; daily topical for 13 weeks, 0.7 mg/rat
  Mortality: None. Only one death took place in a male from the low dose group due to massive abdominal hemorrhage caused by a nephroblastoma
rats; daily topical for 13 weeks, 3.5 mg/rat
  Mortality: None. Only one death took place in a male from the low dose group due to massive abdominal hemorrhage caused by a nephroblastoma
rats; daily topical for 13 weeks, all dosages
  Pathological evaluation of all body organs (macroscopic and microscopic changes): No drug-related macroscopic or microscopic changes
rats; [5]
  Hematology and clinical chemistry parameters: No dose related or sex related biologically meaningful treatment effects
  Serious adverse effects, conclusion: did not cause any serious adverse effects at any of the doses tested
rats; daily topical on the sex organs for 13 weeks, 7 µg, 0.7 mg and 3.5 mg/rat, SPF S.D. rats, 10 males + 10 females per group
  Treatment-related adverse effects: No related adverse effects were detected throughout the study
